Laboratory results as given in patent US20260070945A1, “MACROCYCLIC IMMUNOMODULATORS” (Bristol-Myers Squibb Company, priority 2022, published 2026).
Where a SMILES comes first, the peptide text is derived from it. Bridges are numbered along the chain shown (N, C = ends). [ ]: non-standard residue; d: D form. The star is where a group is joined. ξ: configuration not given here. Phe(4-COOH) = N[C@@H](Cc1ccc(C(=O)O)cc1)C(=O)O; Bip = N[C@@H](Cc1ccc(-c2ccccc2)cc1)C(=O)O; Phe(3-Me) = Cc1cccc(C[C@H](N)C(=O)O)c1; 4Pal = N[C@@H](Cc1ccncc1)C(=O)O; Cha = N[C@@H](CC1CCCCC1)C(=O)O; Ile(3ξ) = CCC(C)[C@H](N)C(=O)O; Thr(3ξ) = CC(O)[C@H](N)C(=O)O; hSer = N[C@@H](CCO)C(=O)O; 4Abz = Nc1ccc(C(=O)O)cc1; Carboxymethyl = O=C(O)C*; NMeA = CN[C@@H](C)C(=O)O; Orn = NCCC[C@H](N)C(=O)O; Aun = NCCCCCCCCCCC(=O)O; Dab = NCC[C@H](N)C(=O)O; Dap = NC[C@H](N)C(=O)O; AEEA = NCCOCCOCC(=O)O

biological target: T1, PD-1/PD-L1 interaction (PE-labeled human PD-L1-Ig binding to Jurkat cell line over-expressing human PD-1) (Homo sapiens, UniProt Q15116); assay: Jurkat-PD-1 Cell Binding High-Content Screening Assay (CBA); details: Jurkat-hPD-1 cells, PE-labeled PD-L1-Ig 20 nM final; read-out: Jurkat HPD1 PDL1 IC50
T1 construct: expressed in transfected cells; host or cells: Jurkat
Outline: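 Read-out: high-content imaging of cell-bound PE fluorescence, with Hoechst 33342 nuclear counterstain after paraformaldehyde fixation. Before labeled ligand (20 nM final, 1 h) was added, compound sat on the cells for 2 h at 37 °C in DMEM/10% FCS.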

T1 sequence (Q15116 25-288): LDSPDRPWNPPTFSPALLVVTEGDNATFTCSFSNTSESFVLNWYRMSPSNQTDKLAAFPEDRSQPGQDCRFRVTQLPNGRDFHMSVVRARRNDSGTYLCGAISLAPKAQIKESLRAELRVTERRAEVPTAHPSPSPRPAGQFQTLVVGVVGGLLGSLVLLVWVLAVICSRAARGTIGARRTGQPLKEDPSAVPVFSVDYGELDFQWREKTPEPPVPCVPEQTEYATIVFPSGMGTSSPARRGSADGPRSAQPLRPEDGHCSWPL

| Compound | IC50 [nM] |
| --- | --- |
| CC(C)C[C@@H]1NC(=O)[C@H](Cc2c[nH]c3ccccc23)NC(=O)[C@H](CC(=O)O)NC(=O)[C@H](Cc2ccncc2)NC(=O)[C@H](Cc2ccc(OCC(=O)O)cc2)NC(=O)CSC[C@@H](C(=O)Nc2ccc(C(=O)NCCCCCCCCCCC(=O)O)cc2)NC(=O)[C@H](CN)NC(=O)[C@H](C(C)C)NC(=O)[C@H](CC2CCCCC2)NC(=O)[C@H](CCN)NC(=O)[C@@H](CC(C)C)NC(=O)[C@H](C)N(C)C(=O)[C@H](C(C)C)NC(=O)[C@H](Cc2ccc(-c3ccccc3)cc2)NC1=O [Example 1211] ({CH2CO}-Y(Carboxymethyl)[4Pal]DWL[Bip]V[NMeA][dL][Dab][Cha]V[Dap]C[4Abz][Aun]-OH; thioether N-14) | 368 |
| Cc1cccc(C[C@@H]2NC(=O)[C@H](CC(=O)O)NC(=O)[C@H](Cc3ccc(OCC(=O)O)cc3)NC(=O)[C@H](CN)NC(=O)CSC[C@@H](C(=O)N[C@@H](CCN)C(=O)NCCOCCOCC(=O)NCCCCCCCCCCC(=O)O)NC(=O)[C@H](CCCN)NC(=O)[C@H](C(C)C)NC(=O)[C@H](CC3CCCCC3)NC(=O)[C@H](CCN)NC(=O)[C@@H](CC(C)C)NC(=O)[C@H](C)N(C)C(=O)[C@H](Cc3ccc(O)cc3)NC(=O)[C@H](Cc3ccc(-c4ccccc4)cc3)NC(=O)[C@H](Cc3ccc(O)cc3)NC2=O)c1 [Example 1312] ({CH2CO}-[Dap]Y(Carboxymethyl)D[Phe(3-Me)]Y[Bip]Y[NMeA][dL][Dab][Cha]V[Orn]C[Dab][AEEA][Aun]-OH; thioether N-14) | 27.4 |

Stronger by IC50, values ahead:

| IC50 [nM] | Compound |
| --- | --- |
| 23.4 | CC(C)C[C@@H]1NC(=O)[C@H](Cc2c[nH]c3ccccc23)NC(=O)[C@H](CC(=O)O)NC(=O)[C@H](Cc2ccc(C(=O)O)cc2)NC(=O)[C@H](Cc2ccc(OCC(=O)O)cc2)NC(=O)CSC[C@@H](C(=O)N[C@@H](CCCN)C(=O)NCCOCCOCC(=O)NCCCCCCCCCCC(=O)O)NC(=O)[C@H](CO)NC(=O)[C@H](C(C)C)NC(=O)[C@H](CC2CCCCC2)NC(=O)[C@H](CCCCN)NC(=O)[C@@H](CC(C)C)NC(=O)[C@H](C)N(C)C(=O)[C@H](C(C)C)NC(=O)[C@H](Cc2ccc(-c3ccccc3)cc2)NC1=O [Example 2133] ({CH2CO}-Y(Carboxymethyl)[Phe(4-COOH)]DWL[Bip]V[NMeA][dL]K[Cha]VSC[Orn][AEEA][Aun]-OH; thioether N-14) |
| 8.7 | CCC(C)[C@@H]1NC(=O)[C@H](Cc2ccc(-c3ccccc3)cc2)NC(=O)[C@H](CC(C)C)NC(=O)[C@H](Cc2c[nH]c3ccccc23)NC(=O)[C@H](CC(=O)O)NC(=O)[C@H](Cc2ccc(OCC(=O)O)cc2)NC(=O)[C@H](Cc2ccncc2)NC(=O)CSC[C@@H](C(=O)N[C@@H](CCCN)C(=O)NCCOCCOCC(=O)NCCCCCCCCCCC(=O)O)NC(=O)[C@H](C(C)O)NC(=O)[C@H](C(C)C)NC(=O)[C@H](CC2CCCCC2)NC(=O)[C@H](CCN)NC(=O)[C@@H](CC(C)C)NC(=O)[C@H](C)N(C)C1=O (stereo partly drawn) [Example 2040] ({CH2CO}-[4Pal]Y(Carboxymethyl)DWL[Bip][Ile(3ξ)][NMeA][dL][Dab][Cha]V[Thr(3ξ)]C[Orn][AEEA][Aun]-OH; thioether N-14) |
| 14.5 | Cc1cccc(C[C@@H]2NC(=O)[C@H](CC(=O)O)NC(=O)[C@H](Cc3ccc(OCC(=O)O)cc3)NC(=O)[C@H](C(C)O)NC(=O)CSC[C@@H](C(=O)N[C@@H](CCN)C(=O)NCCCCCCCCCCC(=O)O)NC(=O)[C@H](CCO)NC(=O)[C@H](C(C)C)NC(=O)[C@H](CC3CCCCC3)NC(=O)[C@H](CCN)NC(=O)[C@@H](CC(C)C)NC(=O)[C@H](C)N(C)C(=O)[C@H](Cc3ccc(OCC(=O)O)cc3)NC(=O)[C@H](Cc3ccc(-c4ccccc4)cc3)NC(=O)[C@H](Cc3ccc(C(=O)O)cc3)NC2=O)c1 (stereo partly drawn) [Example 2352] ({CH2CO}-[Thr(3ξ)]Y(Carboxymethyl)D[Phe(3-Me)][Phe(4-COOH)][Bip]Y(Carboxymethyl)[NMeA][dL][Dab][Cha]V[hSer]C[Dab][Aun]-OH; thioether N-14) |
